Read-outs that look alike come from different tables or passages of the source.
What was measured:
[1] = biological target: 229E Mpro (Human coronavirus 229E, UniProt P0C6X1); assay: 229E Mpro enzymatic assay (standard methods, SARS-CoV2 Mpro assay given as exemplary); type: biochemical, human coronavirus (HCov) 229E
Outline: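 Run by standard methods, with the SARS-CoV-2 Mpro protocol given as the model: E. coli-expressed C-His6 protease at 25 nM and substrate at 25 μM (Km 13.5 μM). Buffer pH 7.3 with 5 mM TCEP and 0.1% BSA; % inhibition versus controls fitted to variable-slope log(inhibitor)-response for IC50.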

[2] = biological target: COVID-19 (nCoV-2019, SARS-CoV2) Mpro (Severe acute respiratory syndrome coronavirus 2, UniProt P0DTD1); assay: COVID-19 (nCoV-2019, SARS-CoV2) Mpro enzymatic assay; type: biochemical; settings: 25 nM Mpro, 25 μM substrate; read-out: COVID-19 Mpro IC50
[3] = system: HCov OC43; assay: HCoV OC43 cytopathic effect (CPE) assay, CellTiter Glo; type: cell-based, human coronavirus (HCov) OC43
[4] = read-out: OC43 IC50 (uM) MEDIAN, median
[5] = Betacoronavirus 1, OC43, read-out: OC43 IC50 (uM) MEDIAN, median

Sequence of 229E Mpro (P0C6X1 2966-3267): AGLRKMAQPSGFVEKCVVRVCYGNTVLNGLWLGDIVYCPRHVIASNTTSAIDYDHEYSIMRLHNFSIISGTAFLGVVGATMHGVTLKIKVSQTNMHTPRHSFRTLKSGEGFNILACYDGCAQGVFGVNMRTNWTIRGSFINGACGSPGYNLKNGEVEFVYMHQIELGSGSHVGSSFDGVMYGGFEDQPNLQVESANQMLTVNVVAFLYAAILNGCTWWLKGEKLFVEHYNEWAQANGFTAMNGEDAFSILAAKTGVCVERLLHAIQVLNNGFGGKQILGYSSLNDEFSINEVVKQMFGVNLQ

Compound	EC50 ([1]; 229E Mpro EC50) [µM]	IC50 [2] [µM]	IC50 [3, 4] [µM]	also measured
C[C@@]1(O)C[C@H](C(=O)N(c2ccc(-c3ccccc3)cc2)C(C(=O)NC2CCC(F)(F)CC2)c2cncc(F)c2)N(C#N)C1 (single isomer, unassigned) [1330 Isomer 1]	< 2	< 2	< 2	
C[C@@]1(O)C[C@H](C(=O)N(c2ccc(-c3ccccc3)cc2)C(C(=O)NC2CCC(F)(F)CC2)c2cncc(F)c2)N(C#N)C1 (single isomer, unassigned) [1330 Isomer 2]	2 to 10	2 to 10	10 to 30	
O=C(NC1CCC(F)(F)CC1)C(c1cncc(F)c1)N(C(=O)c1cnc[nH]1)c1ccc(C2CC2)cc1F (single isomer, unassigned) [1336 Isomer 1, N-(4-cyclopropyl-2-fluorophenyl)-N-(2-((4,4-difluorocyclohexyl)amino)-1-(5-fluoropyridin-3-yl)-2-oxoethyl)-1H-imidazole-5-carboxamide]	2 to 10	10 to 30		IC50 [3, 5]: > 30 µM
O=C(NC1CCC(F)(F)CC1)C(c1cncc(F)c1)N(C(=O)c1cnc[nH]1)c1ccc(C2CC2)cc1F (single isomer, unassigned) [1336 Isomer 2, N-(4-cyclopropyl-2-fluorophenyl)-N-(2-((4,4-difluorocyclohexyl)amino)-1-(5-fluoropyridin-3-yl)-2-oxoethyl)-1H-imidazole-5-carboxamide]	10 to 30	10 to 30	> 30	
O=C(NC1CCC(F)(F)CC1)C(c1cncc(F)c1)N(C(=O)c1cnc[nH]1)c1ccc(S(F)(F)(F)(F)F)cc1 (single isomer, unassigned) [1337 Isomer 1, N-[2-[(4,4-difluorocyclohexyl)amino]-1-(5-fluoro-3-pyridyl)-2-oxo-ethyl]-N-[4-(pentafluoro-λ6-sulfanyl)phenyl]-1H-imidazole-5-carboxamide]	2 to 10	10 to 30		IC50 [3, 5]: > 30 µM
O=C(NC1CCC(F)(F)CC1)C(c1cncc(F)c1)N(C(=O)c1cnc[nH]1)c1ccc(S(F)(F)(F)(F)F)cc1 (single isomer, unassigned) [1337 Isomer 2, N-[2-[(4,4-difluorocyclohexyl)amino]-1-(5-fluoro-3-pyridyl)-2-oxo-ethyl]-N-[4-(pentafluoro-λ6-sulfanyl)phenyl]-1H-imidazole-5-carboxamide]		10 to 30	> 30	EC50 ([1]; read-out: 229E Mpro EC50): 2 to 10 µM
C[C@H](NC(=O)C(c1cncc(F)c1)N(C(=O)[C@H]1C[C@@](C)(O)CN1C#N)c1ccc(-c2ccccc2)cc1)c1ccccc1 (single isomer, unassigned) [1345 Isomer 1]	< 2	< 2	< 2	
C[C@H](NC(=O)C(c1cncc(F)c1)N(C(=O)[C@H]1C[C@@](C)(O)CN1C#N)c1ccc(-c2ccccc2)cc1)c1ccccc1 (single isomer, unassigned) [1345 Isomer 2]	10 to 30	2 to 10	10 to 30	
C[C@H](NC(=O)C(c1cccnc1)N(C(=O)c1ccco1)c1ccc(-c2ccccc2)cc1)c1ccccc1 (single isomer, unassigned) [1353 Isomer 1]	< 2	< 2		IC50 [3, 5]: > 30 µM
C[C@H](NC(=O)C(c1cccnc1)N(C(=O)c1ccco1)c1ccc(-c2ccccc2)cc1)c1ccccc1 (single isomer, unassigned) [1353 Isomer 2]	> 30	> 30	> 30	
C[C@H](NC(=O)C(c1cnccn1)N(C(=O)c1ccco1)c1ccc(-c2ccccc2)cc1)c1ccccc1 (single isomer, unassigned) [1355 Isomer 1]	2 to 10	< 2		IC50 [3, 5]: > 30 µM
C[C@H](NC(=O)C(c1cnccn1)N(C(=O)c1ccco1)c1ccc(-c2ccccc2)cc1)c1ccccc1 (single isomer, unassigned) [1355 Isomer 2]		< 2	> 30	EC50 ([1]; read-out: 229E Mpro EC50): 2 to 10 µM
CC(C)(C)c1ccc(N(C(=O)[C@H]2CCC(C)(C)N2C#N)C(C(=O)NC2CCCCC2)c2cccnc2)cc1 (single isomer, unassigned) [Compound 262 Isomer 1]	> 30	> 30		IC50 ([3]; read-out: OC43 IC50 (uM) MEDIAN, median, listed as 262 Isomer 1): > 30 µM
CC(C)(C)c1ccc(N(C(=O)[C@H]2CCC(C)(C)N2C#N)C(C(=O)NC2CCCCC2)c2cccnc2)cc1 (single isomer, unassigned) [Compound 262 Isomer 2]	< 2	2 to 10		IC50 ([3]; read-out: OC43 IC50 (uM) MEDIAN, median, listed as 262 Isomer 2): 10 to 30 µM
CC(C)(C)c1ccc(N(C(=O)[C@H]2CC(=O)CN2C#N)C(C(=O)NC2CCCCC2)c2cccnc2)cc1 (single isomer, unassigned) [Compound 278 Isomer 1]	< 2	2 to 10		IC50 [3, 5]: 10 to 30 µM
CC1(O)C[C@H](C(=O)N(c2ccc(C(C)(C)C)cc2)C(C(=O)NC2CCCCC2)c2cccnc2)N(C#N)C1 (single isomer, unassigned) [Compound 284 Isomer 1]		2 to 10		EC50 ([1]; read-out: 229E Mpro EC50): < 2 µM; IC50 ([3]; read-out: OC43 IC50 (uM) MEDIAN, median, listed as 284 Isomer 1): 10 to 30 µM

Compound	EC50 ([1]; 229E Mpro EC50) [µM]	IC50 [2] [µM]	IC50 [3, 4] [µM]	also measured
CO[C@@H]1C[C@H](C(=O)N(c2ccc(C(C)(C)C)cc2)C(C(=O)NC2CCCCC2)c2cccnc2)N(C#N)C1 (single isomer, unassigned) [Compound 292 Isomer 1]	< 2	2 to 10		IC50 [3, 5]: 2 to 10 µM
CO[C@H]1C[C@H](C(=O)N(c2ccc(C(C)(C)C)cc2)C(C(=O)NC2CCCCC2)c2cccnc2)N(C#N)C1 (single isomer, unassigned) [Compound 293 Isomer 2]	2 to 10	10 to 30		IC50 ([3]; read-out: OC43 IC50 (uM) MEDIAN, median, listed as 293 Isomer 2): 10 to 30 µM
CC(C)(C)O[C@@H]1C[C@H](C(=O)N(c2ccc(C(C)(C)C)cc2)C(C(=O)NC2CCCCC2)c2cccnc2)N(C#N)C1 (single isomer, unassigned) [Compound 299 Isomer 1]	10 to 30	10 to 30		IC50 ([3]; read-out: OC43 IC50 (uM) MEDIAN, median, listed as 299 Isomer 1): 10 to 30 µM
CC(C)(C)c1ccc(N(C(=O)[C@H]2C[C@H](Oc3ccccc3)CN2C#N)C(C(=O)NC2CCCCC2)c2cccnc2)cc1 (single isomer, unassigned) [Compound 308 Isomer 1]	> 30	> 30		IC50 [3, 5]: > 30 µM
CC(C)(C)c1ccc(N(C(=O)[C@H]2Cc3ccccc3CN2C#N)C(C(=O)NC2CCCCC2)c2cccnc2)cc1 (single isomer, unassigned) [Compound 374 Isomer 1]	> 30	> 30		IC50 ([3]; read-out: OC43 IC50 (uM) MEDIAN, median, listed as 374 Isomer 1): > 30 µM
CC(C)(C)c1ccc(N(C(=O)[C@H]2Cc3ccccc3CN2C#N)C(C(=O)NC2CCCCC2)c2cccnc2)cc1 (single isomer, unassigned) [Compound 374 Isomer 2]	< 2	< 2		IC50 ([3]; read-out: OC43 IC50 (uM) MEDIAN, median, listed as 374 Isomer 2): 2 to 10 µM
COc1ccc(NC(=O)C(c2cccnc2)N(C(=O)[C@H]2CCCN2C#N)c2ccc(C(C)(C)C)cc2)cn1 (single isomer, unassigned) [Compound 407 Isomer 1]	< 2	< 2		IC50 ([3]; read-out: OC43 IC50 (uM) MEDIAN, median, listed as 407 Isomer 1): 2 to 10 µM
COc1ccc(NC(=O)C(c2cccnc2)N(C(=O)[C@H]2CCCN2C#N)c2ccc(C(C)(C)C)cc2)cn1 (single isomer, unassigned) [Compound 407 Isomer 2]	10 to 30	> 30		IC50 ([3]; read-out: OC43 IC50 (uM) MEDIAN, median, listed as 407 Isomer 2): > 30 µM
CC(C)(C)c1ccc(N(C(=O)[C@H]2CCCN2C#N)C(C(=O)NCC2COC2)c2cccnc2)cc1 (single isomer, unassigned) [Compound 419 Isomer 2]		2 to 10	2 to 10	EC50 ([1]; read-out: 229E Mpro EC50): < 2 µM
COC(C)(C)CNC(=O)C(c1cccnc1)N(C(=O)[C@H]1CCCN1C#N)c1ccc(C(C)(C)C)cc1 (single isomer, unassigned) [Compound 427 Isomer 1]	2 to 10	10 to 30		IC50 ([3]; read-out: OC43 IC50 (uM) MEDIAN, median, listed as 427 Isomer 1): > 30 µM
CN(C)CCNC(=O)C(c1cccnc1)N(C(=O)[C@H]1CCCN1C#N)c1ccc(C(C)(C)C)cc1 (single isomer, unassigned) [Compound 435 Isomer 2]		10 to 30		EC50 ([1]; read-out: 229E Mpro EC50): < 2 µM; IC50 ([3]; read-out: OC43 IC50 (uM) MEDIAN, median, listed as 435 Isomer 2): 10 to 30 µM
CC(C)(C)c1ccc(N(C(=O)[C@H]2CCCN2C#N)C(C(=O)NCc2ccncc2)c2cccnc2)cc1 (single isomer, unassigned) [Compound 439 Isomer 1]	< 2	2 to 10		IC50 [3, 5]: 10 to 30 µM
CC(C)(C)c1ccc(N(C(=O)[C@H]2CCCN2C#N)C(C(=O)NCc2ccncc2)c2cccnc2)cc1 (single isomer, unassigned) [Compound 439 Isomer 2]		2 to 10	10 to 30	EC50 ([1]; read-out: 229E Mpro EC50): < 2 µM
Cc1c[nH]c2cc(N(C(=O)[C@H]3C[C@@H](O)CN3C#N)C(C(=O)NC3CCC(F)(F)CC3)c3cncc(F)c3)ccc12 (single isomer, unassigned) [Compound 747b Isomer 2]		2 to 10	2 to 10	EC50 ([1]; read-out: 229E Mpro EC50): < 2 µM
N#CN1C[C@H](O)C[C@@H]1C(=O)N(c1ccc(C2CC2)cc1F)C(C(=O)NC1CCCCC1)c1cccnc1 (single isomer, unassigned) [Compound 763 Isomer 1]	< 2	< 2		IC50 [3, 5]: < 2 µM
